Measured values as given in PubChem BioAssay (NCI).
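In this assay, cells in 96-well plates receive the compound at five concentrations for 48 hours. Endpoints are linearly interpolated between the surrounding concentrations. TGI marks complete inhibition of growth.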

Columns and labels:
Assay in all cases: growth of human tumour cells (NCI), 48 h
OVCAR-8 ovarian = tested on: OVCAR-8 ovarian
RPMI-8226 leukemia = tested on: RPMI-8226 leukemia
UACC-257 melanoma = tested on: UACC-257 melanoma
786-0 renal = tested on: 786-0 renal
U251 CNS = tested on: U251 CNS
SNB-75 CNS = tested on: SNB-75 CNS
SF-295 CNS = tested on: SF-295 CNS
SK-MEL-2 melanoma = tested on: SK-MEL-2 melanoma
SR leukemia = tested on: SR leukemia
NCI-H522 lung = tested on: NCI-H522 lung

What does the source list for `O=C(Cc1ccccc1)NN1C(=O)/C(=C\c2ccc([N+](=O)[O-])cc2)SC1=Nc1ccccc1`?
TGI (OVCAR-8 ovarian): > 100 µM; TGI (RPMI-8226 leukemia): > 100 µM; TGI (UACC-257 melanoma): > 100 µM; TGI (786-0 renal): > 100 µM; TGI (U251 CNS): > 100 µM; TGI (SNB-75 CNS): > 100 µM; TGI (SF-295 CNS): > 100 µM; TGI (SK-MEL-2 melanoma): > 100 µM

What does the source list for `NC1CNC(=O)c2c(Cl)sc(Cl)c21` (stereo unspecified)?
TGI (OVCAR-8 ovarian): > 100 µM; TGI (SR leukemia): > 100 µM; TGI (RPMI-8226 leukemia): > 100 µM; TGI (UACC-257 melanoma): > 100 µM; TGI (786-0 renal): > 100 µM; TGI (U251 CNS): > 100 µM; TGI (SNB-75 CNS): > 100 µM; TGI (SF-295 CNS): > 100 µM; TGI (SK-MEL-2 melanoma): > 100 µM

For `O=c1c(-c2ccc(Cl)cc2)nnc2n(Cc3ccccc3)c3ccccc3n12`, which TGI (OVCAR-8 ovarian) is on record?
The TGI was > 100 µM.

What about the TGI (SR leukemia) of the same molecule?
Its TGI is > 100 µM.

What about the TGI (NCI-H522 lung) of the same molecule?
Its TGI is > 100 µM.

What about the TGI (UACC-257 melanoma) of the same molecule?
The TGI was > 100 µM.

And the TGI (786-0 renal)?
Its TGI is 42.8 µM.

And the TGI (U251 CNS)?
Its TGI is 72.7 µM.

What about the TGI (SNB-75 CNS) of the same molecule?
The TGI was 44.9 µM.

What about the TGI (SF-295 CNS) of the same molecule?
Its TGI is 49.4 µM.

What about the TGI (SK-MEL-2 melanoma) of the same molecule?
Its TGI is > 100 µM.

Which TGI (OVCAR-8 ovarian) does the source give for `Cc1cccc(C)c1NC(=O)C(=O)C1C(=O)NC(=O)NC1=O` here?
Its TGI is > 100 µM.

And the TGI (SR leukemia)?
Its TGI is > 100 µM.

What about the TGI (NCI-H522 lung) of the same molecule?
Its TGI is > 100 µM.

What about the TGI (RPMI-8226 leukemia) of the same molecule?
The TGI was > 100 µM.

And the TGI (UACC-257 melanoma)?
The TGI was > 100 µM.

What about the TGI (786-0 renal) of the same molecule?
The TGI was > 100 µM.

And the TGI (U251 CNS)?
The TGI was > 100 µM.

And the TGI (SF-295 CNS)?
Its TGI is > 100 µM.

Which results are given for `O=c1[nH]nc(-c2ccccc2)c2[nH]c(-c3ccccc3)cc12`?
TGI (OVCAR-8 ovarian): > 100 µM; TGI (SR leukemia): > 100 µM; TGI (RPMI-8226 leukemia): > 100 µM; TGI (786-0 renal): > 100 µM; TGI (SNB-75 CNS): > 100 µM; TGI (SF-295 CNS): > 100 µM

How did the TGI (OVCAR-8 ovarian) turn out when `O=C(CSc1n[nH]c(=O)[nH]c1=O)NNC(=O)c1cccc2nc3ccccc3nc12` was run?
Its TGI is > 100 µM.

And the TGI (SR leukemia)?
Its TGI is > 100 µM.

And the TGI (RPMI-8226 leukemia)?
Its TGI is > 100 µM.

And the TGI (UACC-257 melanoma)?
Its TGI is > 100 µM.

And the TGI (786-0 renal)?
Its TGI is > 100 µM.

What about the TGI (U251 CNS) of the same molecule?
The TGI was > 100 µM.

What about the TGI (SF-295 CNS) of the same molecule?
Its TGI is > 100 µM.

And the TGI (SK-MEL-2 melanoma)?
The TGI was > 100 µM.

`CSC(C1c2ccccc2N(c2ccc(C)cc2)C2=NC(=O)N(C)C(=O)C21Cl)S(=O)(=O)c1ccc(C)cc1` (stereo unspecified) was tested. Which TGI (OVCAR-8 ovarian) did it give?
Its TGI is > 100 µM.

And the TGI (NCI-H522 lung)?
The TGI was 31.9 µM.

What about the TGI (RPMI-8226 leukemia) of the same molecule?
The TGI was 57 µM.

What about the TGI (UACC-257 melanoma) of the same molecule?
Its TGI is 57.2 µM.

What about the TGI (786-0 renal) of the same molecule?
The TGI was 38.4 µM.

What about the TGI (U251 CNS) of the same molecule?
The TGI was 38.9 µM.

And the TGI (SNB-75 CNS)?
The TGI was 60 µM.

What about the TGI (SF-295 CNS) of the same molecule?
The TGI was 62.4 µM.

And the TGI (SK-MEL-2 melanoma)?
The TGI was 38.9 µM.

Which TGI (OVCAR-8 ovarian) does the source give for `O=C(Cc1ccc([N+](=O)[O-])cc1)OCC#CCOC(=O)Cc1ccc([N+](=O)[O-])cc1` here?
Its TGI is > 10 µM.

What about the TGI (SR leukemia) of the same molecule?
Its TGI is > 10 µM.

What about the TGI (NCI-H522 lung) of the same molecule?
Its TGI is > 10 µM.

What about the TGI (UACC-257 melanoma) of the same molecule?
Its TGI is > 10 µM.

What about the TGI (786-0 renal) of the same molecule?
Its TGI is > 10 µM.

What about the TGI (U251 CNS) of the same molecule?
The TGI was > 10 µM.

And the TGI (SNB-75 CNS)?
Its TGI is > 10 µM.

What about the TGI (SF-295 CNS) of the same molecule?
The TGI was > 10 µM.

And the TGI (SK-MEL-2 melanoma)?
Its TGI is > 10 µM.

Which results are given for `Cc1cc2ncc3c(=O)n(NS(=O)(=O)c4ccc(N)cc4)ccc3n2n1`?
TGI (OVCAR-8 ovarian): > 100 µM; TGI (NCI-H522 lung): > 100 µM; TGI (UACC-257 melanoma): > 100 µM; TGI (786-0 renal): > 100 µM; TGI (U251 CNS): > 100 µM; TGI (SNB-75 CNS): > 100 µM; TGI (SF-295 CNS): > 100 µM; TGI (SK-MEL-2 melanoma): > 100 µM

`COc1c(Br)cc(CC(N)=O)c(O)c1Br` was tested. Which TGI (OVCAR-8 ovarian) did it give?
Its TGI is > 100 µM.

What about the TGI (SR leukemia) of the same molecule?
Its TGI is > 100 µM.

And the TGI (NCI-H522 lung)?
Its TGI is > 100 µM.

What about the TGI (UACC-257 melanoma) of the same molecule?
Its TGI is > 100 µM.

What about the TGI (U251 CNS) of the same molecule?
The TGI was > 100 µM.

What about the TGI (SNB-75 CNS) of the same molecule?
The TGI was > 100 µM.

What about the TGI (SF-295 CNS) of the same molecule?
Its TGI is > 100 µM.

And the TGI (SK-MEL-2 melanoma)?
The TGI was > 100 µM.

With `FC(F)(F)c1ccc2nc3n(c2c1)C(c1c(Cl)cccc1Cl)SC3` (stereo unspecified) as the molecule, how does the TGI (OVCAR-8 ovarian) read?
The TGI was 46.8 µM.

And the TGI (SR leukemia)?
The TGI was 21.4 µM.

And the TGI (NCI-H522 lung)?
Its TGI is 29.7 µM.

And the TGI (UACC-257 melanoma)?
The TGI was 29.3 µM.

And the TGI (786-0 renal)?
Its TGI is 28.4 µM.

And the TGI (U251 CNS)?
Its TGI is 32.6 µM.

And the TGI (SNB-75 CNS)?
Its TGI is 25.8 µM.

What about the TGI (SF-295 CNS) of the same molecule?
Its TGI is 30.3 µM.

And the TGI (SK-MEL-2 melanoma)?
Its TGI is 42.3 µM.
